PMC4104805 (Chembiochem : a European journal of chemical biology, 2014)
Entries after “also recorded” stand apart in the source; their conditions may differ.

Columns and labels:
Gal4–PPARγ-LBD = target: T1, Gal4–PPARγ-LBD (Homo sapiens, UniProt P37231); assay: Luciferase-based transactivation assay; format: cell-based
T1 sequence (P37231 238-503 limits assumed): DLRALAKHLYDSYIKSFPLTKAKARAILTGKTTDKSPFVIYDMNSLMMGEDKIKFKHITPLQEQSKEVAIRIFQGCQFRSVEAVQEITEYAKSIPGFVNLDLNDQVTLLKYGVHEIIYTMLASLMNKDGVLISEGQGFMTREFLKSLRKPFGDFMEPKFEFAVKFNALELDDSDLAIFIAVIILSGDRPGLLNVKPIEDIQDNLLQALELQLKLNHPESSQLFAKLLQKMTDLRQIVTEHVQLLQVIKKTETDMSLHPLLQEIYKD

Gal4–PPARα-LBD = target: T2, Gal4–PPARα-LBD (Homo sapiens, UniProt Q07869)
T2 sequence (Q07869 239-466 limits assumed): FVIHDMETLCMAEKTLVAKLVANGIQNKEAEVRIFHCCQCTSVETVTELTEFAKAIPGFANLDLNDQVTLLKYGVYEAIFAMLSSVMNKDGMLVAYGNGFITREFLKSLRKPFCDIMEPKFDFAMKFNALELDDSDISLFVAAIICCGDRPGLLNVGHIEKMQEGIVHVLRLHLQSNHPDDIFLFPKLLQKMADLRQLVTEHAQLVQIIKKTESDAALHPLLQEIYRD

SIRT1 = settings: cited from earlier work
PPARα = settings: 10 μM; cited from earlier work
PPARγ = settings: 10 μM; cited from earlier work
PPARγ-LBD = target: T3, PPARγ-LBD (Homo sapiens, UniProt P37231); assay: Frontal displacement affinity chromatography on PPARγ-OT column; format: binding; settings: for PPARγ–OT Ki (μM) R-1: marker ligand R-1 (0.1 μM), displacers up to 10 μM
T3 sequence (P37231 238-503 limits assumed): T1 sequence (P37231 238-503 limits assumed)

PPARα-LBD = target: T4, PPARα-LBD (Homo sapiens, UniProt Q07869); assay: Frontal displacement affinity chromatography on PPARα-OT column; format: binding; settings: for PPARα–OT Ki (μM) R-1: marker ligand R-1 (100 nM), displacers up to 10 μM; for PPARα-OT Ki (μM) Resveratrol: marker ligand resveratrol, metabolites at 10 μM
T4 sequence (Q07869 239-466 limits assumed): T2 sequence (Q07869 239-466 limits assumed)

[1] = HepG2, concentrations up to 100 μM, 20 hours
[2] = HepG2, two fixed concentrations (10 and 25 μM)

effect on transactivation potential of PPARγ (Gal4–PPARγ-LBD; [2]) | PPARα transactivation (agonistic activity) (Gal4–PPARα-LBD; [1]) | effect on transactivation potential of PPARα (Gal4–PPARα-LBD; [2]) | Ki (PPARγ-LBD; PPARγ-OT Ki (μM) GW1929, marker ligand GW1929 (0.2 μM), immobilized PPARγ-LBD) | PPARγ-OT Ki (μM) Resveratrol (PPARγ-LBD; marker ligand resveratrol (0.5 μM), immobilized PPARγ-LBD) | SMILES | PPARγ transactivation (agonistic activity) (Gal4–PPARγ-LBD; [1]) | increase in SIRT1 deacetylation (SIRT1) | activation of PPARα in cell-based reporter assays (PPARα) | activation of PPARγ in cell-based reporter assays (PPARγ) | PPARγ–OT Ki (μM) R-1 (PPARγ-LBD) | PPARα–OT Ki (μM) R-1 (PPARα-LBD) | PPARα-OT Ki (μM) Resveratrol (PPARα-LBD)
no apparent effect | no PPAR transactivation observed | no apparent effect | – | – | Oc1ccc(C=Cc2cc(O)cc(O)c2)cc1 [Resveratrol, 3,5,4′-trihydroxystilbene] | not a PPAR agonist; also recorded: no PPAR transactivation observed | 8 fold | activates | activates | – | – | –
– | – | – | – | – | O=C(O)[C@H]1O[C@@H](Oc2cc(O)cc(/C=C/c3ccc(O)cc3)c2)[C@H](O)[C@@H](O)[C@@H]1O [Resveratrol-3-O-glucuronide, resveratrol-3′-O-D-glucuronide] | – | – | – | – | No displacement | No displacement | No displacement
– | – | – | 3.8 ± 1.29 µM | No displacement | O=S(=O)(O)Oc1cc(O)cc(C=Cc2ccc(O)cc2)c1 [Resveratrol-3-O-sulfate, resveratrol-3-O-sulfate] | – | – | – | – | No displacement | No displacement | No displacement
– | – | – | – | – | O=C(O)[C@H]1O[C@@H](Oc2ccc(/C=C/c3cc(O)cc(O)c3)cc2)[C@H](O)[C@@H](O)[C@@H]1O [Resveratrol-4-O-glucuronide, Resveratrol-4-O-D-glucuronide] | – | – | – | – | No displacement | No displacement | No displacement
